Experimental data: ChEMBL document CHEMBL6078705 (Bioorg Med Chem, 2025)
The source made the active and inactive calls. The calls are words filed in the database; no cut-off is given here.

Tests used:
[1] = biological target: Tubulin (Homo sapiens) (UniProt P68371+Q9H4B7+P0DPH7+P68366+Q13509+Q71U36+P04350+Q3ZCM7+P07437+P68363+Q9BQE3+Q6PEY2+Q13885+Q9BVA1+Q9BUF5); assay: Inhibition of [3H]Colchicine binding to tubulin (unknown origin) at 5 uM incubated for 10 mins in presence of GTP by Beckman scintillation counter relative to control; assay type: protein-complex assay
[2] = system: MDA-MB-231; assay: Cytotoxicity against human MDA-MB-231 cells assessed as cell growth inhibition incubated for 96 hrs by SRB assay; assay type: functional
[3] = Inhibition of bovine brain tubulin polymerization preincubated for 15 mins followed by GTP addition and measured after 20 mins by spectrophotometric analysis; set-up: species or system Bos taurus
[4] = system: MCF7; assay: Cytotoxicity against human MCF7 cells assessed as cell growth inhibition; assay type: functional
[5] = Toxicity in female BALB/c mouse implanted with orthotropic 4T1-Luc cells assessed as animal death at >50 mg/kg, ip measured within 24 hrs; assay type: organism-based; details: in vivo
[6] = system: Mus musculus; assay: Vascular disrupting activity in female BALB/c mouse implanted with orthotropic 4T1-Luc cells assessed as reduction in bioluminescence imaging signal at 50 mg/kg, ip measured at 4 hrs by imaging analysis relative to control; assay type: functional; set-up: scale not given: the % may be the effect or the level left
[7] = system: Mus musculus; assay: Vascular disrupting activity in female BALB/c mouse implanted with orthotropic 4T1-Luc cells assessed as reduction in bioluminescence imaging signal at 20 mg/kg, ip measured at 4 hrs by imaging analysis; assay type: functional, organism-based
[8] = system: Mus musculus; assay: Vascular disrupting activity in female BALB/c mouse implanted with orthotropic 4T1-Luc cells assessed as reduction in bioluminescence imaging signal at 20 mg/kg, ip measured at 24 hrs by imaging analysis relative to control; assay type: functional; set-up: scale not given: the % may be the effect or the level left
[9] = Toxicity in female syngenic BALB/c mouse implanted with orthotropic RENCA-Luc cells assessed as animal death at 50 to 100 mg/kg, ip measured after 24 hrs; assay type: organism-based; details: in vivo, dose 50-100 mg/kg
[10] = system: Mus musculus; assay: Vascular disrupting agent in female syngenic BALB/c mouse implanted with orthotropic RENCA-Luc cells assessed as reduction in bioluminescence imaging signal at 50 mg/kg, ip measured at 4 hrs by imaging analysis relative to control; assay type: functional; set-up: scale not given: the % may be the effect or the level left
[11] = system: Mus musculus; assay: Vascular disrupting agent in female syngenic BALB/c mouse implanted with orthotropic RENCA-Luc cells assessed as reduction in bioluminescence imaging signal at 50 mg/kg, ip measured at 24 hrs by imaging analysis; assay type: functional, organism-based
[12] = system: Mus musculus; assay: Vascular disrupting agent in female syngenic BALB/c mouse implanted with orthotropic RENCA-Luc cells assessed as reduction in bioluminescence imaging signal at 100 mg/kg, ip measured at 24 hrs by imaging analysis; assay type: functional, organism-based
[13] = system: Mus musculus; assay: Vascular disrupting agent in female syngenic BALB/c mouse implanted with orthotropic RENCA-Luc cells assessed as reduction in bioluminescence imaging signal at 100 mg/kg, ip measured at 4 hrs by imaging analysis relative to control; assay type: functional; set-up: scale not given: the % may be the effect or the level left

| SMILES | inhibition [1] [%] | GI50 [2] [nM] | IC50 [3] [nM] | GI50 [4] [nM] | further results |
| --- | --- | --- | --- | --- | --- |
| COc1ccc2c(C(=O)c3cc(OC)c(OC)c(OC)c3)c(-c3ccc(OC)c([N+](=O)[O-])c3)[nH]c2c1 | 24 | 275 | 770 | 120 |  |
| COc1ccc(-c2[nH]c3c(OP(=O)([O-])[O-])c(OC)ccc3c2C(=O)c2cc(OC)c(OC)c(OC)c2)cc1OC.[Na+].[Na+] |  |  |  |  | Activity [5]: Toxic; Activity [6]: 95%; Activity [7]: inactive; Activity [8]: 50% |
| COc1ccc(-c2[nH]c3c(OC)c(OC)c(OC)cc3c2C(=O)c2cc(OC)c(OC)c(OC)c2)cc1O |  |  | > 20000 | > 5000 |  |
| COc1ccc(-c2[nH]c3cc(OC)c(OC)c(OC)c3c2C(=O)c2cc(OC)c(OC)c(OC)c2)cc1 |  |  | > 5000 | 1500 |  |
| COc1ccc(-c2[nH]c3c(O)c(OC)ccc3c2C(=O)c2cc(OC)c(OC)c(OC)c2)cc1 |  | 170 | 860 | 6 |  |
| COc1ccc2c(C(=O)c3cc(OC)c(OC)c(OC)c3)c(-c3ccc(OC)c(N)c3)[nH]c2c1 | 65 | 36.9 | 430 | 20 |  |
| COc1ccc2c(C(=O)c3cccc(Cl)c3)c(-c3ccc(OC)c(O)c3)[nH]c2c1 | 69 | 319 | 450 | 470 |  |
| COc1ccc2c(C(=O)c3c(F)c(F)c(F)c(F)c3F)c(-c3ccc(OC)c(O)c3)[nH]c2c1 |  |  | > 20000 | > 5000 |  |
| COc1ccc(/C=C\c2cc(OC)c(OC)c(OC)c2)cc1O [COMBRETASTATIN A4] |  | 1.7 | 910 | 9.5 |  |
| COc1ccc(-c2[nH]c3c(C)c(C)ccc3c2C(=O)c2cc(OC)c(OC)c(OC)c2)cc1O |  |  | > 20000 | > 5000 |  |
| COc1ccc(-c2[nH]c3c(OC)c(OC)ccc3c2C(=O)c2cc(OC)c(OC)c(OC)c2)cc1OP(=O)([O-])[O-].[Na+].[Na+] |  |  |  |  | Activity [9]: Non-toxic; Activity [10]: 15%; Activity [11]: Active; Little Change Observed Relative To 4 Hrs Compound Treatment; Activity [12]: Active; Slight Recovery Observed; Activity [13]: 91% |
| COc1cccc(-c2[nH]c3cc(OC)c(OC)c(OC)c3c2C(=O)c2cc(OC)c(OC)c(OC)c2)c1 |  |  | > 5000 | > 5000 |  |
| COc1ccc2c(C(=O)c3cc(OC)c(OC)c(OC)c3)c(-c3ccc(OC)c(Br)c3)[nH]c2c1 | 34 | 483 | 1200 | 413 |  |
| COc1ccc(-c2[nH]c3c(OC)c(OC)ccc3c2C(=O)c2cc(OC)c(OC)c(OC)c2)cc1O |  | 14 | 760 | 3.5 |  |
| COc1cccc(C(=O)c2c(-c3ccc(OC)c(O)c3)[nH]c3cc(OC)ccc23)c1 | 33 | 537 | 4200 | 490 |  |
| COc1ccc2c(C(=O)c3cc(Cl)cc(Cl)c3)c(-c3ccc(OC)c(O)c3)[nH]c2c1 | 80 | 133 | 740 | 240 |  |
| COc1ccc2c(C(=O)c3cccc(F)c3)c(-c3ccc(OC)c(O)c3)[nH]c2c1 | 25 | 7110 | 1600 | 2500 |  |
| COc1ccc2c(C(=O)c3cc(F)cc(F)c3)c(-c3ccc(OC)c(O)c3)[nH]c2c1 | 50 | 3170 | 820 | 1500 |  |
| COc1ccccc1-c1[nH]c2cc(OC)c(OC)c(OC)c2c1C(=O)c1cc(OC)c(OC)c(OC)c1 | 70 | 6980 | 920 | 85 |  |
